Read-outs that look alike come from different tables or passages of the source.
How the values were obtained:
[1] = system: two component NS2B-NS3 Proteinase of West Nile Virus; details: another MLSCN Center; ref xxix, xxx; cited from earlier work
[2] = system: bovine aortic endothelial cells; details: ref xl; cited from earlier work
[3] = target: cathepsin L (Homo sapiens, UniProt P07711); assay type: biochemical; details: stoichiometric amounts of enzyme
[4] = system: human liver cathepsin L; details: cited from earlier work
[5] = system: zebrafish; details: cited from earlier work
[6] = system: Leishmania major; details: read-out: IC50, Leishmania major; cellular model of infection; ref xl; cited from earlier work
[7] = system: cathepsin B; details: relative to cathepsin L
[8] = system: Plasmodium falciparum; details: read-out: IC50, Plasmodium falciparum; cellular model of infection; ref xl; cited from earlier work
[9] = reaction of 15a in the presence of cysteine, LC/MS monitoring for products; assay type: physicochemical
[10] = system: Ebola virus; details: cited from earlier work
[11] = system: SARS-CoV; details: cited from earlier work

Chain of cathepsin L (P07711 114-333): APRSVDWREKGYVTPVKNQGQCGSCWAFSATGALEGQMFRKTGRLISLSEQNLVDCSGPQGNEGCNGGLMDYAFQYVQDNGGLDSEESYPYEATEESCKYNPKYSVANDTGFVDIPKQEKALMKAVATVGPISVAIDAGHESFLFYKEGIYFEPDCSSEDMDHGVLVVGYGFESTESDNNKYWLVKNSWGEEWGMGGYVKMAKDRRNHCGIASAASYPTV

In the case of COc1ccc(S(=O)(=O)n2nc(OC(=O)c3ccccc3)cc2N)cc1 [CID 655490], the “mode of inhibition of NS2B-NS3 Proteinase” value [1] is listed as “slow-binding, reversible, non-competitive inhibitor”.
In the case of CCc1ccccc1NC(=O)CSC(=O)NNC(=O)[C@H](Cc1c[nH]c2ccccc12)NC(=O)OC(C)(C)C [Compound 15a], the “Toxicity (bovine aortic endothelial cells)” value [2] is given as 16 µM, the “products of hydrolysis (20 and 21) detected by LC/MS” value [3] is given as “No products were detected” and the IC50 ([4]; cathepsin L, no preincubation stated, ref xl) is given as 0.056 µM. The Ki ([4]; cathepsin L, ref xl) was 0.00089 µM, the koff ([4]; cathepsin L, ref xl) was 2.2e-05 s⁻¹ and the IC50 ([4]; read-out: Cathepsin L inhibition IC50, analogs of 15a, ref xlii) was 0.056 µM. The IC50 ([4]; read-out: IC50(4h preincubation), cathepsin L, 4h preincubation, ref xl) was 0.001 µM, the “kinetic characterization of inhibition” value ([4]; ref xl) was “slowly reversible inhibition” and the “Toxicity (zebrafish)” value ([5]; ref xl) was greater than 100 µM. The IC50 [6] was 12.5 µM, the “Selectivity vs cathepsin B” value ([7]; ref xl) was 45-fold and the IC50 [8] was 15.4 µM. The “products detected in the presence of cysteine” value [9] was “no detectable products”.
In the case of CC(C)(C)OC(=O)N[C@@H](Cc1c[nH]c2ccccc12)C(=O)NNC(=O)OCC(=O)N1CCCc2ccccc21 [Compound 19], the IC50 ([4]; read-out: IC50 against cathepsin L with a 4 hour pre-incubation, 4 hour pre-incubation, ref xxx) is listed as 0.0004 µM, the IC50 ([4]; read-out: IC50 against cathepsin L, no pre-incubation, ref xxx) is listed as 0.007 µM and the “cathepsin L activity of analogs with modified C2 carbonyl reactivity” value ([4]; ref xxxviii) is listed as “as potent as the thiocarbazate”. For the same molecule, the “toxicity in zebrafish whole organism assay” value ([5]; no toxicity detected up to this concentration, ref xxx) was greater than 100 µM, the “selectivity compared to cathepsin B” value ([7]; ref xxx) was greater than 700 fold and the “concentration preventing entry of Ebola virus into cells” value [10] was “sub-micromolar”. The “concentration preventing entry of SARS-CoV into cells” value [11] was “sub-micromolar”.
